Reference: publication PMC10087775, “ProX from marine Synechococcus spp. show a sole preference for glycine‐betaine with differential affinity between ecotypes” (Environmental Microbiology, 2022)
Like-named read-outs stand apart in the source and are kept apart here.

Key:
ChoX = target: ChoX; parameters: method as in Oswald et al. ([2008]); conditions: ref Oswald et al. ([2008]); read-out: Affinity (K D); cited from earlier work
OpuAC = target: OpuAC; parameters: method as in Wolters et al. ([2010]); conditions: ref Wolters et al. ([2010]), read-out: Affinity (K D), cited from earlier work
TmoX = target: TmoX; parameters: method as in Li et al. ([2015]); conditions: ref Li et al. ([2015]); read-out: Affinity (K D); cited from earlier work
ProX [1] = target: ProX; parameters: method as in Schiefner, Holtmann, et al. ([2004]); conditions: ref Schiefner, Holtmann, et al. ([2004]); read-out: Affinity (K D); cited from earlier work
(UniProt A0A7G8ITR3) = assay: Modified DSF (isothermal analysis, FoldAffinity) binding affinity of MITS9220_ProX; parameters: species or system Synechococcus sp. MITS9220; conditions: read-out: Affinity (K D)
Protocol: (§1) The DSF assay was modified to elucidate binding kinetics, following a published protocol specifically outlining this application, and validated using SBPs (Bai et al., [2019]). Briefly, a range of protein concentrations were tested (2–20 μM) to determine the optimal signal‐to‐noise ratio while requiring a low protein concentration (5 μM). Protein solutions were prepared in Buffer A at a concentration of 10 μM, with a 50× concentration of SYPRO Orange dye. Working stocks of ligands were prepared independently (in Buffer A) at the following concentrations: 0.4, 0.8, 1.6, 3.2, 6.4, 12.8, 25, 50, 100, 200, 2000 μM. ProX protein and ligands (10 μl each) were both delivered in triplicate into a 96‐well plate (final volume 20 μl). Plates were centrifuged in a benchtop plate spinner (1 min) to ensure sample homogeneity before recording fluorescence data across the thermal ramp as previously described.
(§2) Data were processed using two independent software packages: the provided Python package (Bai et al., [2019]) and the web‐based FoldAffinity tool (Niebling et al., [2021]) to ensure their consistency and determine affinity values. The final values reported were taken from FoldAffinity. Processed results were then plotted (GraphPad Prism) to generate publication‐quality figures of the processed data.
(§3) Purified ProX samples were subjected to binding kinetics determination using a modified DSF approach (Bai et al., [2019]; Niebling et al., [2021]). This approach was selected due to aberrant noise in calorimetric and tryptophan quenching experiments, attributed to possible dimer‐monomer interconversion co‐occurring with ligand‐binding events. […] This is related to the proportion of folded versus unfolded protein at a single temperature (isothermal analysis) using a selected temperature value (T sel ) slightly above the T M previously determined. Using the FoldAffinity tool (Niebling et al., [2021]), non‐linear regression and curve fitting of the processed thermal melt curves allowed the determination of ligand dissociation constants (K D ) for each protein and ligand partner.

ProX [2] = target: ProX; parameters: method as in Schiefner, Breed, et al. ([2004]); conditions: ref Schiefner, Breed, et al. ([2004]); read-out: Affinity (K D); cited from earlier work
WH8102_ProX [3] = target: T1, WH8102_ProX (Parasynechococcus marenigrum, UniProt Q7U4Z5); assay: Modified DSF (isothermal analysis, FoldAffinity) binding affinity of WH8102_ProX; parameters: species or system Synechococcus sp. WH8102; conditions: for Kd: read-out: Affinity (K D)
Protocol: as §1, §2, §3

MITS9220_ProX = assay: DSF thermal melt ligand screening of MITS9220_ProX; format: binding, Synechococcus sp. MITS9220; conditions: ligand tested independently by DSF
Protocol: (§4) Commercially available libraries of small molecules were tested as potential binding partners to ProX by recording differential scanning fluorimetry (DSF) responses over a thermal gradient (Neisen et al., [2007]). SYPRO Orange dye (Invitrogen) was used to monitor fold integrity in discrete protein mixtures by measuring fluorescence at 590 nm following excitation at 485 nm using a Stratagene MX3000P q‐PCR instrument. Compounds tested in 96‐well blocks incorporated common protein stabilizing ligands (HR2‐096 Silver Bullets, Hampton Research) and single‐molecule osmolyte sources (MicroPlate PM9, Biolog Inc). The concentration of these compounds following reaction set‐up was ~4 μM, and, therefore below the concentration required to effect complete saturation of the binding pocket. Each condition was tested in triplicate, with each plate containing a control well with no additive.
(§5) Thermal melt curves were analysed using the analysis template provided (Neisen et al., [2007]) and fitting of Boltzmann distribution (GraphPad Prism) for the determination of mid‐point thermal melt temperatures (Bai et al., [2019]). The only condition (Silver Bullets well #D8) leading to a significant increase (>3°C) in melting temperature was deconvoluted to identify the single component leading to such a change and repeated in triplicate.

WH8102_ProX [4] = target: T1, WH8102_ProX; assay: DSF thermal melt ligand screening of WH8102_ProX; format: binding, Synechococcus sp. WH8102; conditions: ligand tested independently by DSF
Protocol: as §4, §5

[5] = 0.50 M NaCl (Buffer A), Tsel 62°C

Chain of (UniProt A0A7G8ITR3) (A0A7G8ITR3 40-334 limits assumed): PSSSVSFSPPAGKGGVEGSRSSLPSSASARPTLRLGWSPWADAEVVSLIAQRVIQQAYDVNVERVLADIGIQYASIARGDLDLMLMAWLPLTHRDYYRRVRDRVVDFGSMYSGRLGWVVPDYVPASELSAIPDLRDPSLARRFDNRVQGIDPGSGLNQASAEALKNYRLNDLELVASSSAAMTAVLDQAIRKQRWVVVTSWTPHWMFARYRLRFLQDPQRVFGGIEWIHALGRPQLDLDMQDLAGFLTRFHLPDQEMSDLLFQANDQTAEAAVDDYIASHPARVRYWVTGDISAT
T1 sequence (Q7U4Z5 entry or part of it): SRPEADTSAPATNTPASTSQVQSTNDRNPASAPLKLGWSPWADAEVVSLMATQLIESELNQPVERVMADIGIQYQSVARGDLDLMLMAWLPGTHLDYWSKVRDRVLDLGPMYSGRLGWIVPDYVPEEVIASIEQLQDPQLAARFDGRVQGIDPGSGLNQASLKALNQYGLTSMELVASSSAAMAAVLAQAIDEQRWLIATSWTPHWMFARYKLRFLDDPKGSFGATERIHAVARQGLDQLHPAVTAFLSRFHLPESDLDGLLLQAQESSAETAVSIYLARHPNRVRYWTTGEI

With `CC(=O)OCC[N+](C)(C)C` [Acetylcholine] as the compound, how does the Kd (ChoX) read?
Its Kd is 145 µM.

Which Kd (OpuAC; dash with footnote b) does the source give for `C[N+](C)(C)CC(O)CC(=O)[O-]` (stereo not shown) [Carnitine] here?
Its Kd is over 10000 µM.

Which Kd (TmoX) does the source give for `C[N+](C)(C)CCO` [Choline] here?
Its Kd is 3.8 µM.

And the Kd (ChoX)?
The Kd was 2.7 µM.

With `O=C(O)[C@@H]1CCCN1` [Proline] as the compound, how does the Kd (OpuAC; dash with footnote b) read?
Its Kd is over 10000 µM.

With `C[N+](C)(C)[O-]` [Trimethylamine oxide] as the compound, how does the Kd (TmoX) read?
Its Kd is 1.6 µM.

With `C[N+](C)(C)CC(=O)[O-]` [glycine betaine] as the compound, how does the Kd (ProX [1]) read?
Its Kd is 0.06 µM.

What about the Kd ((UniProt A0A7G8ITR3); 0.25 M NaCl) of the same compound?
Its Kd is 1.1 µM.

What about the Kd ((UniProt A0A7G8ITR3); [5]) of the same compound?
The Kd was 1.2 µM.

And the Kd ((UniProt A0A7G8ITR3); 1.5 M NaCl)?
The Kd was 0.52 µM.

And the Kd (ProX [2])?
The Kd was 1 µM.

What about the Kd (WH8102_ProX [3]; 0.25 M NaCl) of the same compound?
Its Kd is 13 ± 0.5 µM.

And the Kd (WH8102_ProX [3]; 0.50 M NaCl (Buffer A))?
Its Kd is 12 µM.

What about the Kd (WH8102_ProX [3]; 1.5 M NaCl) of the same compound?
Its Kd is 13 ± 0.7 µM.

With `C[N+]1(C)CCC[C@H]1C(=O)[O-]` [proline betaine] as the compound, how does the TM shift (MITS9220_ProX) read?
Its TM shift is “approximately 4 °C”.

What about the Kd (ProX [1]) of the same compound?
Its Kd is 0.05 µM.

And the Kd ((UniProt A0A7G8ITR3); [5])?
Its Kd is over 1000 µM.

What about the Kd (OpuAC) of the same compound?
The Kd was 41 µM.

What about the Kd (ProX [2]) of the same compound?
Its Kd is 5 µM.

What about the TM shift (WH8102_ProX [4]) of the same compound?
Its TM shift is under 2 °C.

And the Kd (WH8102_ProX [3]; 0.50 M NaCl (Buffer A))?
Its Kd is 250 ± 80 µM.

And the “shifts in observed melting temperatures upon incremental addition of ligand” value (WH8102_ProX [3]; modified DSF, Figure S3)?
The value was “negligible shifts”.
